Measured values as given in patent publication EP0113029B1, “Dicyclic hexapeptides, processes for their preparation and pharmaceutical compositions containing them” (Merck & Co., Inc., priority 1982, dated 1989).
Where two headings read alike, the source gives them in different places. Positions of bridges follow the written chain, without caps; N, C: chain ends. Non-standard residues stand in square brackets, D forms with d. Residues, ends and D or L forms follow the SMILES beside them.

Procedure: In order to stabilize the compound toward such decomposition it was treated in aqueous solution with 10-40 mole % of N-ethylmaleimide, a reagent which will react with free sulfhydryl groups that could catalyze disulfide interchange. The excess N-ethyl maleimide was separated by passage through a column of Sephadex° G-25 gel (superfine) eluted with 50% acetic acid.

C[C@@H](O)[C@@H]1NC(=O)[C@H](CCCCN)NC(=O)[C@@H](Cc2c[nH]c3ccccc23)NC(=O)[C@H](Cc2ccccc2)NC(=O)[C@@H]2CSSC[C@H](NC1=O)C(=O)N2 [Example 6] (cyclo(CCF[dW]KT); disulfide 1-2)
stability with respect to polymerization (after treatment in aqueous solution with 10-40 mole % of N-ethylmaleimide and reisolation): completely stable
stability with respect to polymerization (sample as isolated, in certain solvents or on extended storage): unstable with respect to polymerization
